Our source for the IC50 values is patent US20240316074A1 (priority 2021, published 2024).

Type in all cases: cell-based
The subject of assay [1] is SARS-CoV-2 spike pseudotyped lentivirus. The assay can be described thus: organism not typed. The following applies: HEK-293T, read-out: IC50, concentration which reduced pseudovirus infections by half.
Assay [2] deals with SARS-CoV-2 variant B.1.351. Kind of assay: microbe, parasite or virus in culture. To be noted: Severe acute respiratory syndrome coronavirus 2, Vero C1008.
The test system of assay [3] is SARS-CoV-2 variant B.1.1.7. The assay can be described thus: microbe, parasite or virus in culture. To be noted: Severe acute respiratory syndrome coronavirus 2, Vero C1008.

≈ marks a conversion by molar mass, not a printed value.

For the compound `C=C(C)[C@@H]1CCC(C)=C[C@H]1c1c(O)cc(CCCCC)c(C(=O)O)c1O` [CBDA, Cannabidiolic acid], the IC50 amounted to 7.7 µg/mL (≈ 21.5 µM) in assay [1], 19 µg/mL (≈ 53 µM) in assay [2] and 11 µg/mL (≈ 30.7 µM) in assay [3].
For `CCCCCc1cc(O)c(C/C=C(\C)CCC=C(C)C)c(O)c1C(=O)O` [CBGA, Cannabigerolic acid] the same measures were 8.4 µg/mL (≈ 23.3 µM), 37 µg/mL (≈ 103 µM) and 26 µg/mL (≈ 72.1 µM).
